Test results taken from patent US20230404987A1, “METHOD OF TREATING BREAST CANCER” (Eisai R&D Management Co., Ltd., priority 2020, published 2023).
“And” between values parts separate entries of the source, which are not always exact repeats. Equal entries are not always repeated.

Legend:
[1] = tested on: women with locally advanced or metastatic ER+, HER2-negative breast cancer; test: Phase 1/2 study of Compound 1 QD PO: safety (DLT, adverse events); type: in vivo, human
Method: (§1) Compound 1 was tested in a first-in-human, Phase 1/2 study in women with locally advanced or metastatic ER+, HER2-negative breast cancer. In this multicenter study, women with locally advanced or metastatic ER+, HER2− breast cancer were treated with Compound 1 administered QD, PO over a 28-day cycle after progression on at least 1 hormonal therapy and at least 1 additional therapy/regimen.
(§2) The primary objective of the Phase 1 was to determine the MTD and RP2D in pretreated subjects with ER+, HER2−metastatic breast cancer. Secondary objectives included safety and antitumor activity. The primary objective of the Phase 2 was to estimate the efficacy of this agent in terms of objective response rate (ORR), clinical benefit rate (CBR), and progression-free survival (PFS). Secondary objectives included safety. The trial was designed to exclude a lower limit of ORR of 5% at one-sided level of significance of 0.05 and a power of 90%.
The Phase 1 part evaluated once daily doses from 100 to 600 mg. […] Consequently, the dose of 450 mg was selected as the RP2D.

[2] = tested on: locally advanced or metastatic ER+, HER2-negative breast cancer; test: Phase 1/2 study of Compound 1 QD PO: antitumor efficacy (best overall response, CBR, PFS); type: in vivo, human; settings: for Confirmed partial responses / Clinical benefit rate (≥23 weeks) / Stable disease (SD) rate: response-evaluable subjects; for mPFS: started on 450 mg; for Median PFS: full analysis set; for Progression free survival, median (95% CI): FIG. 4, Example 3; for Progression free survival, median (95%): FIG. 3, Example 3
Method: as §1, §2
Over 30 months, 130 patients were enrolled; 47 in the Phase 1 part and 83 in the Phase 2 part of the trial. A total of 105 subjects, including 73 subjects on 450 mg were response-evaluable.
Experiments conducted subsequent to those reported in Example 1 were directed to identify the parameters driving the activity of Compound 1 in the trial population. Two parameters were of particular interest: 1) PgR status, and 2) ESR1 mutant type and allele frequency. PFS was used in these analyses because it is a continuous variable. […] The effect of baseline circulating ESR1, of particular ESR1 mutants and their allele frequency was unknown.
The effect of PgR positivity and the detection prior to treatment of ESR1 mutations Y537S and D538G on median PFS was then investigated using the Kaplan-Meier method. The effect of ESR1 clonality was also investigated since the presence of simultaneous clones of ESR1 mutations likely indicates very advanced or complex disease. Of note, the allele frequencies of the different ESR1 mutants were not identical, indicating the presence of multiple clones in a tumor, rather than multiple mutations in the same tumor ESR1 gene. For the purpose of these analyses, clonal Y537S was defined as ESR1 Y537S mutation detected in a pre-treatment whole blood sample at a mutant allele frequency (MAF)≥0.5% with a MAF for D538G<0.5%. Conversely, clonal D538G was defined as ESR1 D538G mutation detected in a pre-treatment whole blood sample at a MAF≥0.5% with a MAF for Y537S<0.5%.
Following data analysis described above, patients remained in the Phase 2 study reported in Example 1, and clinical data collection continued. The primary objective of this study was to estimate the efficacy of Compound 1 in terms of best overall response rate (ORR), duration of response (DoR), clinical benefit rate, and progression-free survival (PFS) in all subjects and in those with and without ERα mutation (ERαMUT).
83 patients were treated with 450 mg in the Phase 2 study of Example 1. Additionally, 11 patients who were treated with 450 mg in the Phase 1 part of the trial (also discussed in Example 1) have been grouped with these 83 Phase 2 patients for discussion in this example. […] Patients were heavily pretreated, and 85% of the patients received prior CDK4/6 inhibitors.

[3] = tested on: PDX breast cancer models, including those with mutated ESR1; settings: multiple PDX breast cancer models; cited from earlier work
[4] = 450 mg, N = 72, response-evaluable set, Example 3
[5] = 450 mg, N = 73, response evaluable set, Example 1
[6] = 10 patients with clonal ESR1 Y537S, 450 mg, Example 3
[7] = Clonal D538G (N = 17), 450 mg, Example 3
[8] = Clonal Y537S (N = 10), 450 mg, Example 3
[9] = Clonal Y537S or Clonal D538G (N = 27), 450 mg, Example 3
[10] = Polyclonal Y537S and D538G (N = 2), 450 mg, Example 3
[11] = Y537S and D538G Negatives (N = 43), 450 mg, Example 3
[12] = all doses, N = 105, response evaluable set, Example 1

CN(C)C(=O)/C=C/CNCCOc1ccc(/C(=C(/CC(F)(F)F)c2ccccc2)c2ccc3[nH]nc(F)c3c2)cn1 [Compound 1]
Dose-limiting toxicities (DLTs) observed ([1]; 600 mg cohort, in 2 of 7 subjects (Grade 3 fatigue and Grade 3 drug eruption)): 2 DLTs | Dose-limiting toxicities (DLTs) ([1]; Phase 1, once daily doses up to 450 mg): No dose-limiting toxicities | Grade 1 sinus bradycardia (asymptomatic) ([1]; in vivo): 35% | Grade 2 QTcF prolongation ([1]; in vivo): 2 subjects | Grade 2 sinus bradycardia (symptomatic, no intervention needed) ([1]; in vivo): 4% | Grade 3 QTcF prolongation ([1]; in vivo): 3 subjects | Treatment-related deaths ([1]; in vivo): no treatment-related deaths | RP2D (recommended phase 2 dose) ([1]; once daily, PO): 450 mg | Grade 4 AE ([1]; serum bilirubin, urinary tract obstruction, hyponatremia, all considered related to disease progression): Three | Grade 2 or higher adverse event: AST increase ([1]; subjects, all doses): 11% | Grade 2 or higher adverse event: anemia ([1]; subjects, all doses): 20% | Grade 2 or higher adverse event: diarrhea ([1]; subjects, all doses): 11% | Grade 2 or higher adverse event: fatigue ([1]; subjects, all doses): 16% | Grade 2 or higher adverse event: nausea ([1]; subjects, all doses): 14% | Confirmed partial responses ([2]; 450 mg dose, 90% confidence limits 8.7%-23.7): 15% | Median PFS (Kaplan-Meier) ([2]; 450 mg starters with clonal ESR1 Y537S or clonal D538G mutations, Example 2): 5.5 months | Median time to response (min, max) ([2]; 450 mg, N = 72, Example 3): 2.7 (1.6, 5.5) mo | Median duration of response (min, max) ([2]; 450 mg, N = 72, Example 3, descriptive median): 7.5 (3.5, 16.6) mo | Best overall response: Complete response [2, 4]: 0 n (%) | Best overall response: Confirmed partial response [2, 4]: 12 (17) n (%) | Best overall response: Not evaluable [2, 4]: 2 (3) n (%) | Best overall response: Progressive disease [2, 4]: 27 (38) n (%) | Best overall response: Stable disease [2, 4]: 31 (43) n (%) | Clinical benefit rate (CR + PR + SD ≥ 23 weeks) [2, 4]: 29 (40) n (%) | ORR (95% confidence interval) [2, 4]: 17 (9, 27) % | Best overall response: Complete response (CR) [2, 5]: 0 N (%) | Best overall response: Confirmed partial response (PR) [2, 5]: 11 (15) N (%) | Best overall response: Not evaluable [2, 5]: 3 (4) N (%) | Best overall response: Progressive disease (PD) [2, 5]: 26 (36) N (%) | Clinical benefit rate (CR + PR + SD lasting for ≥23 weeks) [2, 5]: 24 (33) N (%) | Clinical benefit rate (≥23 weeks) ([2]; 450 mg): 33% | Stable disease (SD) rate ([2]; 450 mg): 45% | Partial responses [2, 6]: 30% | Stable disease [2, 6]: 40% | mPFS ([2]; All subjects, PgR negative, N=34): 2.1 months | mPFS ([2]; All subjects, PgR positive, N=38): 5.5 months | Clinical benefit rate [2, 7]: 6 (35) n (%) | Complete response [2, 7]: 0 n (%) | Confirmed partial response [2, 7]: 0 n (%) | Not evaluable [2, 7]: 0 n (%) | Progressive disease [2, 7]: 7 (41) n (%) | Stable disease [2, 7]: 10 (59) n (%) | Median PFS ([2]; Clonal D538G, 450 mg, Example 3): 5.4 mo | Progression free survival, median (95% CI) ([2]; Clonal D538G, N=19, 13 events): 5.4 (1.7, 7.2) months | mPFS ([2]; Clonal D538G, PgR negative, N=3): 1.7 months | mPFS ([2]; Clonal D538G, PgR positive (≥1%), N=10): 4.5 months | Clinical benefit rate [2, 8]: 6 (60) n (%) | Complete response [2, 8]: 0 n (%) | Confirmed partial response [2, 8]: 3 (30) n (%) | Not evaluable [2, 8]: 0 n (%) | Progressive disease [2, 8]: 3 (30) n (%) | Stable disease [2, 8]: 4 (40) n (%) | mPFS ([2]; Clonal Y537S + Clonal D538G (combined data), PgR negative, N=3): 1.7 months | mPFS ([2]; Clonal Y537S + Clonal D538G (combined data), PgR positive, N=16): 7.2 months | Clinical benefit rate [2, 9]: 12 (44) n (%) | Complete response [2, 9]: 0 n (%) | Confirmed partial response [2, 9]: 3 (11) n (%) | Not evaluable [2, 9]: 0 n (%) | Progressive disease [2, 9]: 10 (37) n (%) | Stable disease [2, 9]: 14 (52) n (%) | Median PFS ([2]; Clonal Y537S or Clonal D538G, 450 mg, Example 3): 5.4 mo | Median PFS ([2]; Clonal Y537S, 450 mg, Example 3): 7.3 mo | Progression free survival, median (95% CI) ([2]; Clonal Y537S, N=10, 8 events): 7.3 (0.8, 11.2) months and 7.3 months | mPFS ([2]; Clonal Y537S, PgR positive (≥1%), N=6): 13.0 months | Progression free survival, median (95%) ([2]; PgR Negative (≤1% positive cells), N=34, 20 events): 2.1 (1.7, 7.4) months | Progression free survival, median (95%) ([2]; PgR Positive (≥1% positive cells), N=38, 24 events): 5.4 (2.0, 8.8) months | Clinical benefit rate [2, 10]: 1 (50) n (%) | Complete response [2, 10]: 0 n (%) | Confirmed partial response [2, 10]: 0 n (%) | Not evaluable [2, 10]: 0 n (%) | Progressive disease [2, 10]: 1 (50) n (%) | Stable disease [2, 10]: 1 (50) n (%) | Median PFS ([2]; Polyclonal Y537S and D538G, 450 mg, Example 3): 3.5 mo | Progression free survival, median (95% CI) ([2]; Polyclonal Y537S and D538G, N=4, 3 events): 3.5 (1.7, 5.4) months | mPFS ([2]; Polyclonal, PgR positive, N=3): 2.6 months | Clinical benefit rate [2, 11]: 16 (37) n (%) | Complete response [2, 11]: 0 n (%) | Confirmed partial response [2, 11]: 9 (21) n (%) | Not evaluable [2, 11]: 2 (5) n (%) | Progressive disease [2, 11]: 16 (37) n (%) | Stable disease [2, 11]: 16 (37) n (%) | Median PFS ([2]; Y537S and D538G Negatives, 450 mg, Example 3): 3.8 mo | Progression free survival, median (95% CI) ([2]; Y537S and D538G negatives, N=61, 33 events): 3.8 (2.0, 7.3) months | mPFS ([2]; Y537S/D538G absent, PgR negative, N=31): 2.1 months | mPFS ([2]; Y537S/D538G absent, PgR positive, N=19): 3.8 months | Median progression free survival ([2]; all 94 patients treated with 450 mg, Example 3): 5.1 months | Best overall response: Complete response (CR) [2, 12]: 0 N (%) | Best overall response: Confirmed partial response (PR) [2, 12]: 13 (12) N (%) | Best overall response: Not evaluable [2, 12]: 7 (7) N (%) | Best overall response: Progressive disease (PD) [2, 12]: 37 (35) N (%) | Clinical benefit rate (CR + PR + SD lasting for ≥23 weeks) [2, 12]: 36 (34) N (%) | Clinical benefit rate (≥23 weeks) ([2]; all doses): 34% | Stable disease (SD) rate ([2]; all doses): 46% | Confirmed partial responses ([2]; all doses, 90% confidence limits 7.5%-19%): 12% | Anti-tumor activity (conclusion) ([2]; monotherapy, once daily 450 mg, heavily pretreated ER+, HER2−, metastatic breast cancer patients): demonstrated anti-tumor activity | Median PFS (Kaplan-Meier) ([2]; subjects who started at the 450 mg dose, 95% CI 3.2-6.2, Examples 1 and 2): 3.8 months | Antitumor activity [3]: significant antitumor activity
